One block for each molecule: values may come before it. Where no end group is shown, it is not given here.
Columns and labels:
[1] = biological target: Act-EF34 (C-terminal EF hand domain of α-actinin, actinin-2 residues 823–894) (Homo sapiens, UniProt P35609); experiment: Isothermal titration calorimetry of palladin peptides with Act-EF34; type: binding; settings: for ΔH / ΔG / stoichiometry of binding: ITC; for ΔH / ΔG: 27 °C; for ΔH: one-binding site model; for ΔG: calculated using standard thermodynamic equations; for stoichiometry of binding: Act-EF34 titrations
Act-EF34 = settings: binding to Act-EF34; cited from earlier work
palladin peptide WT = biological target: T1, palladin peptide WT (Homo sapiens); experiment: ITC
T1 chain: Ac-HGQTPAAFLSALLPSQP

Kd [1]: 15.7 ± 7.7 µM
ΔH [1]: -4.5 ± 0.2 kcal/mol
ΔG [1]: −6.6 kcal/mol*K
stoichiometry of binding [1]: ~1
Molecule: Ac-HGQTPAAFLSALLPSQP [Palladin (WT)]

Molecule: AVATVVAAVDMARVRE [Titin Zr1]
Kd (Act-EF34): 0.2 to 0.3 µM

Molecule: AVATVVAAVDQARVRE [Titin Zr7]
Kd (Act-EF34): 0.1 to 0.25 µM

Kd [1]: 19.5 ± 4 µM
ΔH [1]: -6.0 ± 0.2 kcal/mol
ΔG [1]: −6.5 kcal/mol*K
stoichiometry of binding [1]: ~1
Molecule: Ac-HGQTSAAFLSALLPSQP [Palladin (FX)]

Molecule: AETAANRICKVLAVNQE [Actinin N-term]
Kd (Act-EF34): 0.568 ± 0.27 µM

Molecule: FVPKVVISAAKAKEQE [Titin Zr3]
Kd (Act-EF34): > 4 µM

Kd (palladin peptide WT): 15.7 µM
B1: Act-EF34 (alpha-actinin-2) 823-894 (protein)
chain: ADTDTAEQVIASFRILASDKPYILAEELRRELPPDQAQYCIKRMPAYSGPGSVPGALDYAAFSSALYGESDL
